Test results: patent publication US9783536B2, “Nitrogen-containing heterocyclic compound or salt thereof” (FUJIFILM Corporation, priority 2013, dated 2017)
Structures can show the parent of a compound that is named as a salt. Where two headings read alike, the source gives them in different places.

Experiments:
human PI3Kα protein = target: T1, human PI3Kα protein (Homo sapiens, UniProt P42336); assay: PI3Kα enzyme assay (ADP-Glo); format: biochemical; conditions: read-out: PI3Kα enzyme inhibitory activity
T1 construct: purchased Carna Biosciences, Inc; host or cells: baculovirus expression system
Outline: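 Biotinylated human PI3Kα (baculovirus-expressed, 4.5 nmol/L) pre-incubated 15 min with compound in Tris-HCl pH 7.5, MgCl2, BSA; reaction 60 min at 25° C with 50 μmol/L PIP2 and 100 μmol/L ATP final. ADP quantified by ADP-Glo luminescence; IC50 calculated.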

[1] = target: T2, GST fusion human ERK2 protein (Homo sapiens, UniProt P28482); assay: ERK2 enzyme assay (2); format: biochemical; conditions: read-out: ERK2 enzyme inhibitory activity (2)
T2 construct: purchased Carna Biosciences, Inc; host or cells: E. coli expression system
Outline: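 IC50 values come from mobility-shift measurement of phosphorylated versus unphosphorylated 5-FAM peptide substrate after EDTA quench. Beforehand, compound and 1.25 nmol/L E. coli-expressed GST–human ERK2 stood 15 min at room temperature (pH 7.5), then 1 mmol/L ATP and 4.25 μmol/L substrate (final) were added for 120 min at 25 °C.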

T1 sequence (P42336 whole entry): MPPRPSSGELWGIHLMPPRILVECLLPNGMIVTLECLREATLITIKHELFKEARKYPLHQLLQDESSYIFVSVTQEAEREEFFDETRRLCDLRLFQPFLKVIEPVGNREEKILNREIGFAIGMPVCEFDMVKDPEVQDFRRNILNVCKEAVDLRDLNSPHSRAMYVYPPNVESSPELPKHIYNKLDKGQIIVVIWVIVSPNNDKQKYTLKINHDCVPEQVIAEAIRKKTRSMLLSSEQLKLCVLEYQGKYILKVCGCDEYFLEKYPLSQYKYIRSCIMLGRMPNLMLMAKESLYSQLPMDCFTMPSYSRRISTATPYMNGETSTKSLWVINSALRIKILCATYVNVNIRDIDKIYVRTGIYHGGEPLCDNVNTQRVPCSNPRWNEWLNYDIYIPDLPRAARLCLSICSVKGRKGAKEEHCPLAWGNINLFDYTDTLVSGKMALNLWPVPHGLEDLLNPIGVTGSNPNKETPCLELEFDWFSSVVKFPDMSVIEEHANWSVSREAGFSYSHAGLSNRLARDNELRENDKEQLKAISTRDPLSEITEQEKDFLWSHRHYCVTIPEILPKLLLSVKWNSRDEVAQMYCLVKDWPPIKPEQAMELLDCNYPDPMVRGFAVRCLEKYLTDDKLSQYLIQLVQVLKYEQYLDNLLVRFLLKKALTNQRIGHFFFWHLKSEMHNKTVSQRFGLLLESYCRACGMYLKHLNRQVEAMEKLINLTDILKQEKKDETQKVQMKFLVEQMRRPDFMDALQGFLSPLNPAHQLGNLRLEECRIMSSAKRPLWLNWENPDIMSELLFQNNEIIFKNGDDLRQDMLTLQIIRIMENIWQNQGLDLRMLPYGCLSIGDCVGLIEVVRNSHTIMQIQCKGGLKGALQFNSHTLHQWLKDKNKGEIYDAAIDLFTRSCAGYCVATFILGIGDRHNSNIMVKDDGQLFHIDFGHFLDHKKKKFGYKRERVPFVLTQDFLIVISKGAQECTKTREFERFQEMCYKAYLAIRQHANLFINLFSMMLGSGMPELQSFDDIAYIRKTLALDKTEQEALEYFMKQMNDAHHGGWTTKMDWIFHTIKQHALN
T1 sequence (P27986 whole entry partner): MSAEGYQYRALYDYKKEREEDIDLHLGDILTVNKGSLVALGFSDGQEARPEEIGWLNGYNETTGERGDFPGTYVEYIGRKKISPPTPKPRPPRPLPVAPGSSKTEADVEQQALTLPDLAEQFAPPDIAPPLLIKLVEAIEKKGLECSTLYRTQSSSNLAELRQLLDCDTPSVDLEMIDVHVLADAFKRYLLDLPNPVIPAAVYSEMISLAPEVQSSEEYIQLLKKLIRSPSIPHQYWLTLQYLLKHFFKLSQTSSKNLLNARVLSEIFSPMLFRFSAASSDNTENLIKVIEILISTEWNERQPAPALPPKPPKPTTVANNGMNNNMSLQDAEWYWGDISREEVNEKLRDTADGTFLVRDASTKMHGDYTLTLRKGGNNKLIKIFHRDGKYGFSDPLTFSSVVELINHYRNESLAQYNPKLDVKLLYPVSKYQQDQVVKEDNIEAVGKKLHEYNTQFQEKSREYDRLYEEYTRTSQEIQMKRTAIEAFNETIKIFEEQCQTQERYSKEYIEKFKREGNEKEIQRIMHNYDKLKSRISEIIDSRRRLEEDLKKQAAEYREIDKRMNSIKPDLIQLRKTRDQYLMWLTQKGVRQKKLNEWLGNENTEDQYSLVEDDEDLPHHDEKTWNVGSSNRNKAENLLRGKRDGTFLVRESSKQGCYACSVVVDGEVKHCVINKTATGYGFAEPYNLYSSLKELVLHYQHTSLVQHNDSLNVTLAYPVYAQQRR
T2 sequence (P28482 whole entry, the tested form may be a part): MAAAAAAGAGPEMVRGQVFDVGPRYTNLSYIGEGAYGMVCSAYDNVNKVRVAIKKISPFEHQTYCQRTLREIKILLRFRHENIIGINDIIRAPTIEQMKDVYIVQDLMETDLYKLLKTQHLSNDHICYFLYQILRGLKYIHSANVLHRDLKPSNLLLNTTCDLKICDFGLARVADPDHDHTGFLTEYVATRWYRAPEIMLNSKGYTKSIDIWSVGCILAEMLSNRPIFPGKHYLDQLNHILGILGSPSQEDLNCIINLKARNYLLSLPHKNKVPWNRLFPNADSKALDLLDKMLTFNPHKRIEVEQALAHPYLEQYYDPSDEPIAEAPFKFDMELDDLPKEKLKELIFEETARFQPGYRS

Row | SMILES | IC50 (human PI3Kα protein) | IC50 ([1]; ERK2 enzyme assay (2)) | IC50 [1]
1 | CC(=O)N1CCCC(Cn2cc(-c3cnc4ccc(Nc5cc(C(C)C)cnn5)nc4c3)cn2)C1 (stereo not shown) [Example 0548] | < 1000 nM | < 1000 nM | 
2 | Cc1nn(C)nc1-c1cnc2ccc(Nc3cc(C(C)C)cnn3)nc2c1 [Example 0720, 7-(2,5-Dimethyl-2H-1,2,3-triazol-4-yl)-N-(5-isopropylpyridazin-3-yl)-1,5-naphthyridine-2-amine] | < 1000 nM | < 1000 nM | 
3 | CC(C)c1cnnc(Nc2ccc3ncc(-c4ccc(=O)n(C)c4)cc3n2)c1 [Example 0594, 5-(6-((5-isopropylpyridazin-3-yl)amino)-1,5-naphthyridin-3-yl)-1-methylpyridin-2(1H)-one] | < 1000 nM | < 1000 nM | 
4 | CC(C)c1cnnc(Nc2ccc3ncc(-c4cnn(CCCN(C)CC(=O)O)c4)cc3n2)c1 [Example 0667, 2-((3-(4-(6-((5-isopropylpyridazin-3-yl)amino)-1,5-naphthyridin-3-yl)-1H-pyrazol-1-yl)propyl) (methyl)amino)acetic acid] | < 1000 nM | < 1000 nM | 
5 | CC(C)c1cnnc(Nc2ccc3ncc(-c4ccn(C)c(=O)c4)cc3n2)c1 [Example 0603] | < 1000 nM | < 1000 nM | 
6 | COc1cnnc(Nc2ccc3ncc(-c4cnn(C)c4)cc3n2)c1 [Example 0495, N-(5-methoxypyridazin-3-yl)-7-(1-methyl-1H-pyrazol-4-yl)-1,5-naphthyridine-2-amine] | < 1000 nM | < 1000 nM | 
7 | COCCN(C)c1nn(C)cc1-c1cnc2ccc(Nc3cc(C(C)C)cnn3)nc2c1 [Example 0945] | < 1000 nM |  | < 1000 nM
8 | CC(C)c1cnnc(Nc2ccc3ncc(C(=O)Nc4ccncc4)cc3n2)c1 [Example 0669] | 1000 to 10000 nM | 1000 to 10000 nM | 
9 | CC(C)c1cnnc(Nc2ccc3ncc(NC4CCOC4)cc3n2)c1 (stereo not shown) [Example 0890] | < 1000 nM | 1000 to 10000 nM | 
10 | CC(C)c1cnnc(Nc2ccc3ncc(N4CCC(CO)CC4)cc3n2)c1 [Example 0511, (1-(6-((5-Isopropylpyridazin-3-yl)amino)-1,5-naphthyridin-3-yl)piperidin-4-yl)methanol] | 1000 to 10000 nM | < 1000 nM | 
11 | CNc1cc(-c2cnc3ccc(Nc4cc(C(C)C)cnn4)nc3c2)ccn1 [Example 0423, N-(5-isopropylpyridazin-3-yl)-7-(2-(methylamino)pyridin-4-yl)-1,5-naphthyridine-2-amine hydrochloride] | < 1000 nM | < 1000 nM | 
12 | CC(C)c1cnnc(Nc2ccc3ncc(-c4cnn(CCCN5CC(N(C)S(C)(=O)=O)C5)c4)cc3n2)c1 [Example 0721, N-(1-(3-(4-(6-((5-isopropylpyridazin-3-yl)amino)-1,5-naphthyridin-3-yl)-1H-pyrazol-1-yl)propyl)azetidin-3-yl)-N-methylmethane sulfonamide] | < 1000 nM | < 1000 nM | 
13 | CC(C)c1cnnc(Nc2ccc3ncc(C4=CCN(C(=O)OC(C)(C)C)CC4)cc3n2)c1 [Example 0880, tert-butyl 4-(6-((5-isopropylpyridazin-3-yl)amino)-1,5-naphthyridin-3-yl)-5,6-dihydropyridine-1(2H)-carboxylate] | < 1000 nM | < 1000 nM | 
14 | CC(C)c1cnnc(Nc2ccc3ncc(N4CCC(S(N)(=O)=O)C4)cc3n2)c1 (stereo not shown) [Example 0900] | < 1000 nM | 1000 to 10000 nM | 
15 | COCC(COC)Cn1cc(-c2cnc3ccc(Nc4cc(C(C)C)cnn4)nc3c2)cn1 [Example 0484] | < 1000 nM | < 1000 nM | 
16 | CNC(=O)c1cnc2ccc(Nc3cc(C(C)C)cnn3)nc2c1 [Example 0642] | 1000 to 10000 nM | < 1000 nM | 
17 | CC(C)COC1CN(CCCn2cc(-c3cnc4ccc(Nc5cc(C(C)C)cnn5)nc4c3)cn2)C1 [Example 0708] | < 1000 nM | < 1000 nM | 
18 | CC(C)c1cnnc(Nc2ccc3ncc(-c4cnn(C)c4)c(-c4ccncc4)c3n2)c1 [Example 0953, N-(5-isopropylpyridazin-3-yl)-7-(1-methyl-1H-pyrazol-4-yl)-8-(pyridin-4-yl)-1,5-naphthyridine-2-amine] | < 1000 nM |  | < 1000 nM
19 | CC(C)c1cnnc(Nc2ccc3ncc(-c4cnn(C5CCN(CCO)CC5)c4)cc3n2)c1 [Example 0480, 2-(4-(4-(6-((5-Isopropylpyridazin-3-yl)amino)-1,5-naphthyridin-3-yl)-1H-pyrazol-1-yl)piperidin-1-yl)ethanol] | < 1000 nM | < 1000 nM | 
20 | CC(C)NC(=O)N1CCC(Cn2cc(-c3cnc4ccc(Nc5cc(C(C)C)cnn5)nc4c3)cn2)CC1 [Example 0544] | < 1000 nM | < 1000 nM | 
21 | COc1cccc(-c2nn(C)cc2-c2cnc3ccc(Nc4cc(C(C)C)cnn4)nc3c2)c1 [Example 0452] | < 1000 nM | < 1000 nM | 
22 | Cn1cc(-c2cnc3ccc(Nc4cc(C(C)(C)C)cnn4)nc3c2)cn1 [Example 0526] | < 1000 nM | < 1000 nM | 

Row | SMILES | IC50 (human PI3Kα protein) | IC50 ([1]; ERK2 enzyme assay (2)) | IC50 [1]
23 | Cn1cc(-c2cnc3ccc(Nc4cc(N5CCCC5)cnn4)nc3c2)cn1 [Example 0520] | 1000 to 10000 nM | < 1000 nM | 
24 | CC(C)c1cnnc(Nc2ccc3ncc(NC4CCCC4)cc3n2)c1 [Example 0878] | < 1000 nM | 1000 to 10000 nM | 
25 | CC(C)c1cnnc(Nc2ccc3ncc(-c4cn(C)nc4N4CC5(COC5)C4)cc3n2)c1 [Example 0934] | < 1000 nM |  | < 1000 nM
26 | CC1CN(CCCn2cc(-c3cnc4ccc(Nc5cc(C(C)C)cnn5)nc4c3)cn2)CCO1 (stereo not shown) [Example 0608] | < 1000 nM | < 1000 nM | 
27 | COC[C@@H]1CCCN1c1cnc2ccc(Nc3cc(C(C)C)cnn3)nc2c1 [Example 0874] | < 1000 nM | < 1000 nM | 
28 | CC(C)c1cnnc(Nc2ccc3ncc(C4=CCNC4)cc3n2)c1 [Example 0906, 7-(2,5-Dihydro-1H-pyrrol-3-yl)-N-(5-isopropylpyridazin-3-yl)-1,5-naphthyridine-2-amine] | 1000 to 10000 nM |  | < 1000 nM
29 | CC(C)c1cnnc(Nc2ccc3ncc(-c4cn(C)nc4NC4CCOC4)cc3n2)c1 (stereo not shown) [Example 0940] | < 1000 nM |  | < 1000 nM
30 | CC(C)c1cnnc(Nc2ccc3ncc(-c4cnn(CCCN5CCN(c6ccccn6)CC5)c4)cc3n2)c1 [Example 0444] | < 1000 nM | < 1000 nM | 
31 | c1cnnc(Nc2ccc3ncc(-c4cnn(CCCN5CCOCC5)c4)cc3n2)c1 [Example 0601, 7-(1-(3-Morpholinopropyl)-1H-pyrazol-4-yl)-N-(pyridazin-3-yl)-1,5-naphthyridine-2-amine] | 1000 to 10000 nM | < 1000 nM | 
32 | COc1ncccc1Cn1cc(-c2cnc3ccc(Nc4cc(C(C)C)cnn4)nc3c2)cn1 [Example 0454] | < 1000 nM | < 1000 nM | 
33 | CC(C)c1cnnc(Nc2ccc3ncc(-c4cnn(C(C)c5ccccn5)c4)cc3n2)c1 (stereo not shown) [Example 0414] | < 1000 nM | < 1000 nM | 
34 | Cn1cc(-c2cnc3ccc(Nc4cc(C5CCCCC5)cnn4)nc3c2)cn1 [Example 0927, N-(5-cyclohexylpyridazin-3-yl)-7-(1-methyl-1H-pyrazol-4-yl)-1,5-naphthyridine-2-amine] | < 1000 nM |  | < 1000 nM
35 | CC(C)c1cnnc(Nc2ccc3ncc(-c4cn(C)nc4NC4CCCCCC4)cc3n2)c1 [Example 0949] | 1000 to 10000 nM |  | 1000 to 10000 nM
36 | CC(=O)Nc1cnc2ccc(Nc3cc(C(C)C)cnn3)nc2c1 [Example 0625, N-(6-((5-isopropylpyridazin-3-yl)amino)-1,5-naphthyridin-3-yl)acetamide] | < 1000 nM | 1000 to 10000 nM | 
37 | COC(CN1CCOCC1)Cn1cc(-c2cnc3ccc(Nc4cc(C(C)C)cnn4)nc3c2)cn1 (stereo not shown) [Example 0730] | < 1000 nM | < 1000 nM | 
38 | CC(=O)Nc1nn(C)cc1-c1cnc2ccc(Nc3cc(C(C)C)cnn3)nc2c1 [Example 0690, N-(4-(6-((5-isopropylpyridazin-3-yl)amino)-1,5-naphthyridin-3-yl)-1-methyl-1H-pyrazol-3-yl)acetamide] | < 1000 nM | < 1000 nM | 
39 | Cc1nn(C)cc1-c1cnc2ccc(Nc3cc(C(C)C)cnn3)nc2c1C [Example 0852, 7-(1,3-Dimethyl-1H-pyrazol-4-yl)-N-(5-isopropylpyridazin-3-yl)-8-methyl-1,5-naphthyridine-2-amine] | < 1000 nM | < 1000 nM | 
40 | COc1cccc(OCc2nn(C)cc2-c2cnc3ccc(Nc4cc(C(C)C)cnn4)nc3c2)c1 [Example 0805] | < 1000 nM | < 1000 nM | 
41 | CC(C)c1cnnc(Nc2ccc3ncc(NC(=O)COCc4ccccc4)cc3n2)c1 [Example 0654, 2-(benzyloxy)-N-(6-((5-isopropylpyridazin-3-yl)amino)-1,5-naphthyridin-3-yl)acetamide] | < 1000 nM | 1000 to 10000 nM | 
42 | Cc1ccc(-c2nn(C)cc2-c2cnc3ccc(Nc4cc(C(C)C)cnn4)nc3c2)cn1 [Example 0734] | < 1000 nM | < 1000 nM | 
43 | Cc1cnnc(Nc2ccc3nccc(-c4cnn(C)c4)c3n2)c1 [Example 0448, 8-(1-Methyl-1H-pyrazol-4-yl)-N-(5-methylpyridazin-3-yl)-1,5-naphthyridine-2-amine] | < 1000 nM | 1000 to 10000 nM | 
44 | CC(=O)Nc1cc(-c2cnc3ccc(Nc4cc(C(C)C)cnn4)nc3c2)ccn1 [Example 0421, N-(4-(6-((5-isopropylpyridazin-3-yl)amino)-1,5-naphthyridin-3-yl)pyridin-2-yl)acetamide] | < 1000 nM | < 1000 nM | 
